Data from patent publication US7510836B2, “Alpha arteether resistance domain” (priority 2003, dated 2009).
In brackets after ≈: the same amount, converted by molar mass.

How the values were obtained:
E. coli CA8000 = assay: Minimum inhibitory concentration (cross resistance); format: cell-based; conditions: Escherichia coli; strain CA8000
Excerpt: (§1) The minimum inhibitory concentrations (MIC) of the quinolone and fluoroquinolone antibiotics were quantified for different strains and compared among each other. The differential response indicate the measure of resistance and sensitivity. Higher MIC indicate more resistance.

E. coli DH5a = assay: as above; format: cell-based; conditions: Escherichia coli; strain DH5a
Excerpt: as §1

E. coli ET8000 = assay: as above; format: cell-based; conditions: Escherichia coli; strain ET8000
Excerpt: as §1

E. coli NK5819 = assay: as above; format: cell-based; conditions: Escherichia coli; strain NK5819
Excerpt: as §1

E. coli mutant CA80010 = assay: as above; format: cell-based; conditions: Escherichia coli, read-out: minimum inhibitory concentration (MIC)
Excerpt: (§2) In order to develop an arteether resistant mutants from an arteether sensitive strains a reverse strategy was applied. Quinoline/fluoroquinolone (Q/FQs) resistant strains were developed spontaneously i.e. screening overnight log phase culture of the Quinolone/fluoroquinolone sensitive i.e. arteether resistant strain (E coli CA 8000) on the poison agar plate of the Q/FQs. The Q/FQ resistant mutants which appeared on the poison agar plates were first purified through single colony purification and then checked for their arteether sensitivity. These arteether sensitive mutants on the contrary when checked for their Q/Fqs resistance they show different level of Q/FQs resistance.
as §1

E. coli mutant CA80012 = assay: as above; format: cell-based; conditions: Escherichia coli, read-out: minimum inhibitory concentration (MIC)
Excerpt: as §2, §1

E. coli mutant CA8001 = assay: as above; format: cell-based; conditions: Escherichia coli; strain CA8001
Excerpt: as §2, §1

E. coli mutant CA8002 = assay: as above; format: cell-based; conditions: Escherichia coli; strain CA8002
Excerpt: as §2, §1

E. coli mutant CA8003 = assay: as above; format: cell-based; conditions: Escherichia coli; strain CA8003
Excerpt: as §2, §1

E. coli mutant CA8005 = assay: as above; format: cell-based; conditions: Escherichia coli; strain CA8005
Excerpt: as §2, §1

E. coli mutant CA8006 = assay: as above; format: cell-based; conditions: Escherichia coli; strain CA8006
Excerpt: as §2, §1

E. coli mutant CA8007 = assay: as above; format: cell-based; conditions: Escherichia coli; strain CA8007
Excerpt: as §2, §1

E. coli mutant CA8009 = assay: as above; format: cell-based; conditions: Escherichia coli; strain CA8009
Excerpt: as §2, §1

[1] = test system: E.coli strain CA 8000 (Gyr+); assay: Phenotype of strain (resistance or sensitivity); format: cell-based, Escherichia coli; conditions: E.coli CA 8000 (Gyr+)
Description: To ascertain the involvement of gyrA mutation, another E.coli strain NK 5819 which is also GyrA″ and nalidixic acid resistant was tested for arteether sensitivity. As expected, strain NK5819 was also sensitive only to a-isomer of arteether. […] The assays for arteether sensitivity was performed by the standard single disk diffusion method (Bauer et al, 1966). As a next step, we isolated gyrA mutants of E.coli strain CA 8000, which is otherwise Gyr+ and nalidixic acid sensitive. The gyrA mutants of CA8000 were isolated as nalidixic acid resistant colonies (20 ug/ml), after mutagenic treatment with NTG ([…]). The isolated CA8000 gyrA mutants were also sensitive only to a isomer of arteether. […] To define precisely the involvement of gyr genes only in the a-arteether sensitivity, we utilised two recombinant clones (pMK 90 and pMK47 containing functional gyr A and gyrB genes respectively) in trans-complementation assays. For this purpose, we mobilized the plasmid clones into the E.coli gyr mutant strains. The resulting transformants were now nalidixic acid sensitive and a-arteether resistant. This constituted the direct evidence supporting our observation that DNA gyrase enzyme alone is involved in conferring a-arteether sensitivity to E.coli strain. […] DNA gyrase enzyme is essential for the bacterial growth. […]

malaria = conditions: antimalarial; cited from earlier work

Structure (SMILES)	MIC (E. coli CA8000)	MIC (E. coli DH5a)	MIC (E. coli ET8000)	MIC (E. coli NK5819)	MIC (E. coli mutant CA80010)	MIC (E. coli mutant CA80012)	MIC (E. coli mutant CA8001)	MIC (E. coli mutant CA8002)	MIC (E. coli mutant CA8003)	MIC (E. coli mutant CA8005)	MIC (E. coli mutant CA8006)	MIC (E. coli mutant CA8007)	MIC (E. coli mutant CA8009)	Sensitivity or resistance of the strain (words) [1]	Potency relative to artemisinin (malaria)
CCn1cc(C(=O)O)c(=O)c2cc(F)c(N3CCNCC3)cc21 [Norfloxacin]	< 0.05 µg/mL	20 µg/mL (≈ 62.6 µM)	50 µg/mL (≈ 157 µM)	25 µg/mL (≈ 78.3 µM)	15 µg/mL (≈ 47 µM)	15 µg/mL (≈ 47 µM)	15 µg/mL (≈ 47 µM)	15 µg/mL (≈ 47 µM)	15 µg/mL (≈ 47 µM)	10 µg/mL (≈ 31.3 µM)	20 µg/mL (≈ 62.6 µM)	15 µg/mL (≈ 47 µM)	15 µg/mL (≈ 47 µM)		
C[C@@H]1CN(c2c(F)c(N)c3c(=O)c(C(=O)O)cn(C4CC4)c3c2F)C[C@H](C)N1 [Sparfloxacin]	< 0.05 µg/mL	10 µg/mL (≈ 25.5 µM)	20 µg/mL (≈ 51 µM)	10 µg/mL (≈ 25.5 µM)	40 µg/mL (≈ 102 µM)	40 µg/mL (≈ 102 µM)	20 µg/mL (≈ 51 µM)	20 µg/mL (≈ 51 µM)	20 µg/mL (≈ 51 µM)	20 µg/mL (≈ 51 µM)	40 µg/mL (≈ 102 µM)	20 µg/mL (≈ 51 µM)	40 µg/mL (≈ 102 µM)		
CCO[C@H]1O[C@@H]2O[C@@]3(C)CC[C@H]4[C@H](C)CC[C@@H]([C@H]1C)[C@@]24OO3 [arteethers, arteether]														resistant	2-3 times
